From patent publication US5523223A, “Ketoester reductase for conversion of keto acid esters to optically active hydroxy acid esters” (priority 1992, dated 1996)
Values joined by “and” are separate entries in the source; they are usually repeats but may differ in a detail not shown here. Equal entries are not always repeated. “Also recorded” adds a separate entry of the source. Where two headings read alike, the source gives them in different places. One block for each compound: values may come before it.

What was measured:
KERed from Y. cellobiosa = experiment: Screening of crude extract for ketoester reductase activity (photometric NAD(P)H decrease); type: biochemical, Yarrowinia cellobiosa; conditions: 8 mM ketoester, TEA-NaOH buffer pH 7, mU/mg protein; for NADH dependent specific activity: 0.2 mM NADH; for NADPH-dependent specific activity: 0.2 mM NADPH
Experimental: (§1) For screening collection strains of the DSM (German Collection of Microorganisms and Cell Cultures, Braunschweig) is cultured in the DSM recommended medium, the cell mass is harvested by centrifugation and disintegrated by wet milling. A permanent deposit of Candida parapsilosis DSM 70125 has been deposited on 29 Mar. 1979 in accordance with the requirements of the Budapest Treaty. The address of the depository is as follows: German Collection of Microorganisms and Cell Cultures, DSM-Mascheroder Weg 1B, Braunschweig, Germany. The supernatant served as the enzyme source (crude extract) and was investigated for ketoester reductase activity. The test was carried out photometrically and the test mixture contained the following components.
(§2) 0.1M triethanoleamine (TEA)-NaOH-Buffer, pH 7
(§3) Limited amounts of the crude extract.
(§4) The NAD(P)H-decrease at 334nm over a period of 1 minute was followed: For activity calculation, an absorption coefficient of […] was used. […] One U (unit) corresponds to the consumption and conversion of 1 μmole of reduced coenzyme per minute.

[1] = test system: KERed from R. erythropolis; experiment: as above; type: biochemical, Rhodococcus erythropolis; conditions: 0.2 mM NADH, 8 mM ketoester, TEA-NaOH buffer pH 7, mU/mg protein
Experimental: as §1, §2, §3, §4

[2] = test system: KERed from C. parapsilosis; experiment: as above; type: biochemical, Candida parapsilosis; conditions: 8 mM ketoester, TEA-NaOH buffer pH 7, mU/mg protein; for NADH dependent specific activity: 0.2 mM NADH; for NADPH-dependent specific activity: 0.2 mM NADPH
Experimental: as §1, §2, §3, §4

[3] = test system: KERed from P. acidovorans; experiment: as above; type: biochemical, Pseudomonas acidovorans; conditions: 8 mM ketoester, TEA-NaOH buffer pH 7, mU/mg protein; for NADH dependent specific activity: 0.2 mM NADH
Experimental: as §1, §2, §3, §4

[4] = test system: KERed from Candida parapsilosis; experiment: Kinetic characterization of the KERed; type: biochemical; conditions: partially purified enzyme; for Vmax: referred to 2-butanone
[5] = test system: KERed from C. parapsilosis; experiment: Inhibition study of the KERed (influence of metal cations and reagents); type: biochemical, Candida parapsilosis
Text: For the following investigation, partially purified enzyme (after Q-sepharose chromatography, 67-times enrichment) was used. […]
5-oxohexanoic acid ethyl ester
TEA-NaOH-buffer, 0.1 M; pH 7.9
The influence of various metal cations and reagents upon the enzymatic activity was investigated in tests in which the test preparation described under example 3.B was used.

[6] = compound 0.1 mM, 35 mM 5-oxohexanoic acid ethyl ester, 0.2 mM NADH, pH 7.9
[7] = compound 1.0 mM, 35 mM 5-oxohexanoic acid ethyl ester, 0.2 mM NADH, pH 7.9
[8] = summary statements of the inhibition study

- NADH dependent specific activity (KERed from Y. cellobiosa): 41.1 mU/mg
- NADPH-dependent specific activity (KERed from Y. cellobiosa): 4.0 mU/mg
- NADH dependent specific activity [1]: 87.1 mU/mg
- NADH dependent specific activity [2]: 85.1 mU/mg
- NADPH-dependent specific activity [2]: 1.3 mU/mg
- NADH dependent specific activity [3]: 4.1 mU/mg
Compound: CCOC(=O)CCC(C)=O [LSEE, levulinic acid ethyl ester]
- Km [4]: 1730 µM
- Vmax [4]: 12%

- NADH dependent specific activity (KERed from Y. cellobiosa): 20.3 mU/mg
- NADH dependent specific activity [1]: 3.0 mU/mg
- NADH dependent specific activity [2]: 49.0 mU/mg
- NADPH-dependent specific activity [2]: 25.0 mU/mg
- NADH dependent specific activity [3]: 11.6 mU/mg
- NADPH-dependent specific activity ([3]; 0.2 mM NADPH): 15.6 mU/mg
Compound: CCCC(=O)CC(=O)OCC [BEEE, butyrylacetic acid ethy ester]
- Km [4]: 1300 µM
- Vmax [4]: 5%

Compound: CCOC(=O)CC(C)=O [AEEE, acetoacetic acid ethyl ester]
- NADH dependent specific activity (KERed from Y. cellobiosa): 103.1 mU/mg
- NADPH-dependent specific activity (KERed from Y. cellobiosa): 5.0 mU/mg
- NADH dependent specific activity [1]: 153.0 mU/mg
- NADH dependent specific activity [3]: 49.0 mU/mg
- Km [4]: 122 µM
- Vmax [4]: 79%

Compound: O=C(O)CN(CCN(CC(=O)O)CC(=O)O)CC(=O)O [EDTA]
- Influence on KERed activity (in words) [5]: practically not inhibited
- Residual Activity [5]: 100% and 80%

Compound: [Zn+2] [Zn^2+]
- Residual Activity [5, 6]: 24%
- Residual Activity [5, 7]: 0%

Compound: [Cu+2] [Cu^2+]
- Residual Activity [5, 6]: 0%
- Residual Activity [5, 7]: 0%
- Influence on KERed activity (in words) [5, 8]: Rapid deactivation

Compound: [Ag+] [Ag^+]
- Residual Activity [5, 6]: 0%
- Residual Activity [5, 7]: 0%
- Influence on KERed activity (in words) [5, 8]: Rapid deactivation

Compound: [Co+2] [Co^2+]
- Residual Activity [5, 6]: 38%
- Residual Activity [5, 7]: 12%
- Influence on KERed activity (in words) [5, 8]: Rapid deactivation

Compound: [Ni+2] [Ni^2+]
- Residual Activity [5, 6]: 10%
- Residual Activity [5, 7]: 0%
- Influence on KERed activity (in words) [5, 8]: Rapid deactivation

Compound: c1cnc2c(c1)ccc1cccnc12 [o-Phenanthroline]
- Residual Activity [5, 6]: 26%
- Influence on KERed activity (in words) [5, 8]: relatively strongly inhibited; also recorded: Strong inhibition

Compound: CCO [Ethanol]
- Residual Activity ([5]; Ethanol 5%): 30%
- Km [4]: 3400 µM
- Vmax [4]: 42%

Compound: c1ccc(-c2ccccn2)nc1 [2,2'-bipyridyl]
- Residual Activity ([5]; 2,2'-bipyridyl 0.05 mM): 52%
- Residual Activity ([5]; 2,2'-bipyridyl 0.5 mM): 23%
- Influence on KERed activity (in words) [5, 8]: Strong inhibition

Compound: O=C(O)c1cc[c]([Hg+])cc1.[OH-] [p-Hydroxymercuribenzoate]
- Residual Activity [5, 6]: 0%
- Residual Activity [5, 7]: 0%
- Influence on KERed activity (in words) [5, 8]: Strong inhibition

Compound: [Mn+2] [Mn^2+]
- Residual Activity [5, 6]: 84%
- Residual Activity [5, 7]: 80%

Compound: Cl.NCCc1ccc(S(=O)(=O)F)cc1 [Pefabloc]
- Residual Activity [5, 7]: 100%
